Data taken from article PMC8224038, “Anti-Leukemic Properties of Aplysinopsin Derivative EE-84 Alone and Combined to BH3 Mimetic A-1210477” (Marine Drugs, 2021).
Read-outs that look alike come from different tables or passages of the source.

Key:
[1] = test system: K562 cells; assay: Cell cycle analysis (PI, FACS); type: cell-based, human; settings: Celecoxib 40 μM
Method: Cells were collected and fixed in 70% ethanol. DNA was stained with propidium iodide (PI) solution (1 μg/mL, Sigma-Aldrich, St. Louis, MO, USA) in 1XPBS (Biosesang, Seongnam, Korea) for 30 min at 37 °C, supplemented with RNase A (100 μg/mL, Roche, Basel, Switzerland). Samples were analyzed by flow cytometry using the FACSCalibur^TM system, Becton Dickinson (BD) Biosciences (San Jose, CA, USA). Data were recorded statistically (10,000 events/sample) using the Cell Quest software (BD Biosciences) and analyzed using Flow-Jo 8.8.5 software (Tree Star, Inc., Ashland, OR, USA).

[2] = test system: K562IR cells; assay: Trypan blue exclusion test, viability; type: cell-based; settings: Homo sapiens, A-1210477 20 µM, 24 h
Method: (§1) Cell proliferation and viability were assessed by the trypan blue exclusion method (Lonza), and viable cells were counted using a hematocytometer (Marienfeld, Lauda-Königshofen, Germany). Differential toxicity was calculated by comparing the viability of RPMI 1788 cells to the viability of cancer cells (normal/cancer cells). The difference in viability was expressed in terms of fold change.

[3] = test system: K562 cells; assay: Annexin V APC/PI staining quantified by FACS; type: cell-based, human
From the text: (§2) The percentage of apoptotic cells was quantified as the fraction of cells showing fragmented nuclei, as assessed by fluorescence microscopy (Nikon, Tokyo, Japan) after staining with Hoechst 33342 (Sigma-Aldrich) and propidium iodide (Sigma-Aldrich). In addition, apoptosis was confirmed by Annexin V APC (Biolegend, 640919)/propidium iodide (BD Biosciences, 556547) staining and fluorescence-activated cell sorter (FACS) analysis according to the manufacturer protocol (BD Biosciences, 556547).

[4] = test system: K562 cells; assay: Trypan blue exclusion test, viability; type: cell-based, human; settings: for viability of K562 cells: concentrations up to 50 µM, 24, 48, 72 h
Method: as §1

[5] = test system: K562 cells; assay: Hoechst/PI staining by fluorescent microscopy; type: cell-based, human; settings: K562, 24 h, A-1210477 10 µM alone (Figure 7D)
From the text: as §2

[6] = test system: K562 cells; assay: Trypan blue exclusion test, proliferation (GI50); type: cell-based, human; settings: concentrations up to 50 µM; 24, 48, 72 h
Method: as §1

[7] = test system: RPMI 1788; assay: Trypan blue exclusion test, proliferation (GI50) in noncancerous cells; type: cell-based, human
Method: as §1

[8] = test system: RPMI 1788; assay: Trypan blue exclusion test, viability (IC50) in noncancerous cells; type: cell-based, human; settings: for IC50: read-out: IC50 (50% cell death)
Method: as §1

[9] = test system: zebrafish embryos; assay: Zebrafish toxicity; settings: 24 h exposure
Method: For toxicity assays, embryos were treated with 0.003% phenylthiourea (PTU) 14 h before the assay to remove pigmentation. Then, 2 h before the assay, the embryo’s shell was eliminated and then treated for up to 24 h with aplysinopsin compounds at indicated concentrations in 24-well plates. Viability and abnormal development were assessed after 24 h of treatment under light microscopy (Carl Zeiss Stereomicroscope DV4, Seoul, Korea). Pictures were taken by fixing embryos onto a glass slide with 3% methylcellulose (Sigma-Aldrich).

[10] = K562, 24 h, A-1210477 10 μM, with z-VAD-fmk (50 μM)
[11] = K562, 24 h, Ima 1 μM, with z-VAD-fmk (50 μM)

With `Cc1ccc(-c2cc(C(F)(F)F)nn2-c2ccc(S(N)(=O)=O)cc2)cc1` [Celecoxib, reference compound] the “G1 cell cycle phase” value ([1]; K562, 48 h) was 64.77 ± 3.09%, the “G2/M cell cycle phase” value ([1]; K562, 48 h) was 17.44 ± 2.13% and the “S cell cycle phase” value ([1]; K562, 48 h) was 15.00 ± 0.93%. The “Sub-G1 cell cycle phase” value ([1]; K562, 48 h) was 2.79 ±1.90%, the “G1 cell cycle phase” value ([1]; K562, 72 h) was 68.43 ± 4.67% and the “G2/M cell cycle phase” value ([1]; K562, 72 h) was 16.96 ± 3.04%. The “S cell cycle phase” value ([1]; K562, 72 h) was 11.20 ± 2.37% and the “Sub-G1 cell cycle phase” value ([1]; K562, 72 h) was 3.41 ± 2.04%.

For `Cc1nn(C)c(COc2ccc(N3CCN(S(=O)(=O)N(C)C)CC3)cc2)c1-c1cccc2c(CCCOc3cccc4ccccc34)c(C(=O)O)n(CCN3CCOCC3)c12` [Compound A-1210477, reference compound], the viability at 20 µM [2] was 73 ± 3.6%, the “AnnV+/PI+ (%)” value ([3]; K562, 24 h, A-1210477 10 μM) was 4.73 ± 0.17% and the “AnnV+/PI− (%)” value ([3]; K562, 24 h, A-1210477 10 μM) was 9.31 ± 1.78%. The “Combined cell death (%)” value ([3]; K562, 24 h, A-1210477 10 μM) was 14.04 ± 3.24%, the “AnnV+/PI+ (%)” value [3, 10] was 2.81 ± 0.21% and the “AnnV+/PI− (%)” value [3, 10] was 6.04 ± 0.99%. For the same compound, the “Combined cell death (%)” value [3, 10] was 8.85 ± 2.28%, the viability at 10 µM ([4]; Homo sapiens, K562, A-1210477 10 µM, 24 h) was 79.3 ± 1.5% and the apoptotic cell death [5] was “about 14.5%”.

With `N#CCC(=O)NNC(=O)C(=O)c1cn(Cc2ccccc2)c2ccccc12` [EE-31, 2-(1-Benzyl-1H-Indol-3-yl)-N′-(2-Cyanoacetyl)-2-Oxoacetohydrazide] the “overall growth of K562 cells” value [6] was “only weakly affected”, the melting point was 264 to 266 °C and the “viability of K562 cells” value [4] was “only weakly affected”.

In the case of `COc1ccc2c(c1)c(C(=O)C(=O)NNC(=O)CC#N)cn2Cc1ccccc1` [EE-80, 2-(1-Benzyl-5-Methoxy-1H-Indol-3-yl)-N′-(2-Cyanoacetyl)-2-Oxoacetohydrazide], the “overall growth of K562 cells” value [6] is reported as “only weakly affected”, the melting point is reported as 199 to 201 °C and the “viability of K562 cells” value [4] is reported as “only weakly affected”.

For `COc1ccc2c(c1)c(C(=O)C(=O)NNC(=O)CC#N)cn2Cc1ccc(Cl)cc1Cl` [EE-92, N′-(2-Cyanoacetyl)-2-(1-(2,4-Dichlorobenzyl)-5-Methoxy-1H-Indol-3-yl)-2-Oxoacetohydrazide], the “overall growth of K562 cells” value [6] was “only weakly affected”, the melting point was 242 to 244 °C and the “viability of K562 cells” value [4] was “only weakly affected”.

In the case of `Cc1ccc(NC(=O)c2ccc(CN3CCN(C)CC3)cc2)cc1Nc1nccc(-c2cccnc2)n1` [Ima, Imatinib, reference compound], the “AnnV+/PI+ (%)” value ([3]; K562, 24 h, Ima 1 μM) is reported as 6.97 ± 0.88%, the “AnnV+/PI− (%)” value ([3]; K562, 24 h, Ima 1 μM) is reported as 37.77 ± 4.07% and the “Combined cell death (%)” value ([3]; K562, 24 h, Ima 1 μM) is reported as 44.74 ± 21.78%. The “AnnV+/PI+ (%)” value [3, 11] was 2.93 ± 0.15%, the “AnnV+/PI− (%)” value [3, 11] was 10.86 ± 3.57% and the “Combined cell death (%)” value [3, 11] was 13.79 ± 5.60%. The “AnnV+/PI+ (%)” value ([3]; K562, Ima 1 μM (Figure 3B)) was 31.27 ± 5.24%, the “AnnV+/PI− (%)” value ([3]; K562, Ima 1 μM (Figure 3B)) was 51.77 ± 2.29% and the “Combined cell death (%)” value ([3]; K562, Ima 1 μM (Figure 3B)) was 83.03 ± 14.50%.

In the case of “(Z)-5-((1H-Indol-3-yl)Methylene)-1,3-Dimethylimidazolidine-2,4-Dione [EE-115]”, the GI50 ([7]; RPMI 1788, 24 h) is reported as > 50 µM, the GI50 ([7]; RPMI 1788, 48 h) is reported as 30.4 ± 1.95 µM and the GI50 ([7]; RPMI 1788, 72 h) is reported as 27.7 ± 2.3 µM. The “overall growth of K562 cells” value [6] was “only weakly affected”, the “viability of K562 cells” value [4] was “only weakly affected” and the IC50 ([8]; RPMI 1788, 24 h) was > 50 µM. The IC50 ([8]; RPMI 1788, 48 h) was > 50 µM, the IC50 ([8]; RPMI 1788, 72 h) was > 50 µM and the “viability of RPMI 1788 cells” value ([8]; up to 50 µM, Figure S4B) was “reduced the viability”. The “growth (relative body length) of zebrafish” value ([9]; concentrations up to 100 µM) was “did not affect”, the “survival rate of zebrafish” value ([9]; concentrations up to 100 µM) was “did not affect” and the “morphological changes of zebrafish” value ([9]; embryos 24 hpf, different concentrations) was “No significant morphological changes”.
